Measurements from patent EP2002836B1, “Cyclocondensed azaindoles active as kinase inhibitors” (Nerviano Medical Sciences S.r.l., priority 2007, dated 2008).

Key:
[1] = test system: S6 ribosomal protein phosphorylation in MCF7; experiment: Inhibition of AKT induced S6 ribosomal protein phosphorylation in MCF7 (immunofluorescence, ArrayScan); assay type: cell-based; conditions: Homo sapiens, MCF-7 cells, 4 hour treatment at 37°C, anti-phospho-S6 (Ser 235/236), read-out: S6 phosphorylation (Ser235/236) in MCF7-cell IC50
Method: MCF-7 cells (ATCC# HTB-22) were seeded in 96-well poly-lysine coated clear- and flat-bottomed black plates (Matrix Technologies Inc., Hudson, NH, USA), in E-MEM medium (MEM+ Earle's BSS + 2 mM glutamine + 0.1 mM non-essential amino acids) containing 10% of FCS at a density of 7000 cells/well, and incubated overnight at 37°C, 5% CO2, 100% relative humidity. After this incubation, cells were treated with increasing compound doses for 4 hour at 37°C. Afterwards, cells were fixed with PBS/3.7% paraformaldehyde for 15 min at room temperature, wash twice with 200 µl/well D-PBS and permeabilize with a D-PBS solution containing 0.1% Triton X-100 (Sigma-Aldrich, St. Louis, MO, USA) and 0.1 % powder Milk for 15 minutes (staining solution). […] Fluorescence images in the DAPI and Cy5™ channels were automatically acquired, stored and analysed using a Cellomics ArrayScan™ IV instrument (Cellomics, Pittsburgh, USA); the Cellomics Cytotoxicity Algorithm was used to quantify cytoplasmic fluorescence associated with phospho-S6 (Cy5™ signal parameter: "Mean Lyso Mass-pH") for each cell in 10 fields/well, and eventually expressed as a mean population value. […]

AKT1 = AKT1 (Homo sapiens, UniProt P31749); experiment: FABS-NMR screening (3-FABS, 19F-labelled AKTide-like substrate) on AKT-1; assay type: biochemical; design: The active human Ser-Thr protein kinase AKT-1 Full Length was expressed as GST fusion protein; GST (cleaved yes); made in house; host or cells: insect cells; conditions: 25 nM protein, 30 µM substrate, 1.5 mM ATP; read-out: AKT1 IC50 (µM) FABS NMR assay
Chain of AKT1 (P31749 whole entry, the tested form may be a part): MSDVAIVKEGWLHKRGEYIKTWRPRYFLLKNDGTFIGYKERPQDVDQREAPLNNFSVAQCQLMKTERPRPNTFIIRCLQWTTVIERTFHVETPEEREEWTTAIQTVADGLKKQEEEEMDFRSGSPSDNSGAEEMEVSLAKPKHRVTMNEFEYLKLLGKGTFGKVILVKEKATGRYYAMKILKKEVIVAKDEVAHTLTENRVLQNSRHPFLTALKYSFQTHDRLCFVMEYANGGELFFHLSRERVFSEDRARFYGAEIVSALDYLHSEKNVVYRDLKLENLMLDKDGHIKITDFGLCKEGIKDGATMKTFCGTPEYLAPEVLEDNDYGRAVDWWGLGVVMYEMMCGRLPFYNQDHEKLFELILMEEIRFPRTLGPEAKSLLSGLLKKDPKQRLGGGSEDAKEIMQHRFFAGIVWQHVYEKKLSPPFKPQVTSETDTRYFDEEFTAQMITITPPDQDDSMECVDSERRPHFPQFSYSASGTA
Method: The biochemical functional NMR screening on the proteins kinase AKT-1 and PKA was performed using the 3-FABS (3-Fluorine Atoms for Biochemical Screening) technique developed by C. Dalvit and the NMR group in house (C. Dalvit et al 2003 J. Am. Chem. Soc. 125 (47): 14620).
The method require the use of a ^19F-labelled substrate. The same commercial peptide was used as substrate in both enzymatic reaction: the Tyr just before the phosphorilation site in the AKTide peptide was mutated in a 3-tryfluormethyl-Phe by Bachem.
The AKTide like peptide sequence is reported below: • H-Ala-Arg-Lys-Arg-Glu-Arg-Ala-F(3-CF3)-Ser-Phe-Gly-His-His-Ala-OH
The active human Ser-Thr protein kinase AKT-1 Full Length was expressed as GST fusion protein in insect cells and then the GST was cleaved with PreScission protease. The active cycled AMP-dependent human protein kinase A PKA was expressed as polyHis-tag protein in E.Coli and purified by affinity column.
Reactions were performed in an end point format in eppendorf of 0.5 ml using the buffer solution 50mM Tris, pH 7.5, 5mM MgCl2, 1mM DTT, 8% D2O and 0.001% Triton-X-100; the final volume was of 560 µl. The substrate and protein concentration were of 30 µM and 25 nM respectively. The reactions were performed using an ATP concentration of about 9 times its KM: 150 µM in the test with PKA and 1.5 mM in the AKT-1 experiments. A sample in absence of inhibitor was run as control in order to follow the ongoing of the reaction and it represents the 0% inhibition. Different concentration compound stock solutions in DMSOd6 were made in order to add the same amount of DMSOd6 in each sample: usually the compounds stock were of 0.03, 0.2, 2, and 10 mM. 0.56 µl of these solution was added in each sample in order to reach the final compounds concentration of 30 nM, 200 nM 2 µM and 10 µM respectively; 0.56 µl of DMSOd6 was added in the control too. The reactions were quenched after about 100/120 minutes with 10 mM of Staurosporine (Sigma code:S4400), transferred into the 5 mm NMR tube (Cortec code: NE-MP5-8) and put onto the Sample Management System (SMS) autosampler for automatic data collection. The spectra were recorded using the Varian Inova 600 MHz NMR spectrometer operating at a ^19F Larmor frequency of 564 MHz and using a 5mm probe with the inner coil tuned to ^19F and the outer coil tuned to H. The data were recorded without proton decoupling with a spectral width of 12000 Hz, an acquisition time of 0.8s and a relaxation delay of 2.8s. Chemical shifts are referenced to trifluoroacetic acid.
IC50 determination was achieved by measuring the substrate signal as a function of the inhibitor concentration using one of the formulas below. […] IC50 data were analyzed with non-linear least squares methods in the Origin 5.0 software package.

`NC[C@H](Cc1ccccc1)NC(=O)C1=Cc2c[nH]c3nccc(c23)CC1` [Cpd. 1, N-[(1S)-2-amino-1-benzylethyl]-6,7-dihydro-2H-2,3-diazabenzo[cd]azulene-8-carboxamide] showed an IC50 [1] of 13500 nM and an IC50 (AKT1) of 0.15 µM.

Work on `CC(=O)N1CC(C(=O)N[C@H](CN)Cc2ccccc2)=Cc2c[nH]c3nccc1c23` [Cpd. 3, 6-acetyl-N-[(1S)-2-amino-1-benzylethyl]-6,7-dihydro-2H-2,3,6-triazabenzo[cd]azulene-8-carboxamide] yielded an IC50 (AKT1) of 0.76 µM.

With `O=C(N[C@H](CN1CCCC1)c1ccccc1)C1=Cc2c[nH]c3nccc(c23)CC1` [Cpd. 6, N-[(1S)-1-phenyl-2-pyrrolidin-1-ylethyl]-6,7-dihydro-2H-2,3-diazabenzo[cd]azulene-8-carboxamide] the IC50 [1] was 11500 nM and the IC50 (AKT1) was 0.315 µM.

`NC[C@H](Cc1ccccc1)NC(=O)C1=Cc2c[nH]c3nccc(c23)NC1` [compound 2, N-[(1S)-2-amino-1-benzylethyl]-6,7-dihydro-2H-2,3,6-triazabenzo[cd]azulene-8-carboxamide] was tested, and the IC50 (AKT1) was 0.03 µM.
